Measured values as given in ChEMBL document CHEMBL3414495, “Multi-target tacrine-coumarin hybrids: cholinesterase and monoamine oxidase B inhibition properties against Alzheimer's disease” (Eur J Med Chem, 2015).

What was measured:
[1] = molecular target: T1, Amine oxidase [flavin-containing] B (Homo sapiens, UniProt P27338)
T1 sequence (P27338 whole entry): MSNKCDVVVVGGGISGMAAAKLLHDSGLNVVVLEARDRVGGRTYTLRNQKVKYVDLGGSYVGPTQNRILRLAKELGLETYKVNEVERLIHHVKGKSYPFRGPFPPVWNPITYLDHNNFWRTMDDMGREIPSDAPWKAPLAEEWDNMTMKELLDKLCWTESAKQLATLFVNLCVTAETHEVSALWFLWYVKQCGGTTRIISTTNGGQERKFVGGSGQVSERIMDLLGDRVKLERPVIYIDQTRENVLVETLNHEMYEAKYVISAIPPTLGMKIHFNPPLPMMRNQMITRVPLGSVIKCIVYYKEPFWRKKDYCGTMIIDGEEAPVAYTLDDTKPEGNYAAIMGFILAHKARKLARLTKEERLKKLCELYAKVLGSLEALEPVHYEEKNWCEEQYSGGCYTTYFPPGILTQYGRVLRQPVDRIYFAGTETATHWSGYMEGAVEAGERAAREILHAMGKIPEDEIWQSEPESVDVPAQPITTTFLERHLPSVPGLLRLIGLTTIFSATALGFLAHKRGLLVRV
Description: Inhibition of human MAO-B using p-tyramine as substrate assessed as H2O2 production by amplex red assay

[2] = molecular target: T2, Amine oxidase [flavin-containing] A (Homo sapiens, UniProt P21397); assay: Inhibition of human MAO-A using p-tyramine as substrate assessed as H2O2 production at 200 uM by amplex red assay
T2 sequence (P21397 whole entry): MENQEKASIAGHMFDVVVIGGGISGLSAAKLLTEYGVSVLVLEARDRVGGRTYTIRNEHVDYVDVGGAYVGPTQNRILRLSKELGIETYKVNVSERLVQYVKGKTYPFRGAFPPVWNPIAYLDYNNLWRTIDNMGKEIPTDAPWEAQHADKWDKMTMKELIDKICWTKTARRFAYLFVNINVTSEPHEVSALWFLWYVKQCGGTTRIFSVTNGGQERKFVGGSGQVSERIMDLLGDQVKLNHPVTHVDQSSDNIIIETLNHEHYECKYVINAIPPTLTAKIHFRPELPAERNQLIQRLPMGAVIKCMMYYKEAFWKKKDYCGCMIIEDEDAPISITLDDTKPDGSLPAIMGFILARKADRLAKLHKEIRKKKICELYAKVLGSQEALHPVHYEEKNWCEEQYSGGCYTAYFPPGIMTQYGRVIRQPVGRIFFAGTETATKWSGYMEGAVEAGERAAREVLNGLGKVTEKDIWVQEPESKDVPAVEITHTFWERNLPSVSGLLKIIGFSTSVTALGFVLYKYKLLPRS

Homo sapiens = species on record: Homo sapiens; assay: Selectivity index, ratio of IC50 for human MAO-A to IC50 for human MAO-B
Acetylcholinesterase [3] = molecular target: T3, Acetylcholinesterase (Electrophorus electricus, UniProt O42275)
T3 sequence (O42275 whole entry): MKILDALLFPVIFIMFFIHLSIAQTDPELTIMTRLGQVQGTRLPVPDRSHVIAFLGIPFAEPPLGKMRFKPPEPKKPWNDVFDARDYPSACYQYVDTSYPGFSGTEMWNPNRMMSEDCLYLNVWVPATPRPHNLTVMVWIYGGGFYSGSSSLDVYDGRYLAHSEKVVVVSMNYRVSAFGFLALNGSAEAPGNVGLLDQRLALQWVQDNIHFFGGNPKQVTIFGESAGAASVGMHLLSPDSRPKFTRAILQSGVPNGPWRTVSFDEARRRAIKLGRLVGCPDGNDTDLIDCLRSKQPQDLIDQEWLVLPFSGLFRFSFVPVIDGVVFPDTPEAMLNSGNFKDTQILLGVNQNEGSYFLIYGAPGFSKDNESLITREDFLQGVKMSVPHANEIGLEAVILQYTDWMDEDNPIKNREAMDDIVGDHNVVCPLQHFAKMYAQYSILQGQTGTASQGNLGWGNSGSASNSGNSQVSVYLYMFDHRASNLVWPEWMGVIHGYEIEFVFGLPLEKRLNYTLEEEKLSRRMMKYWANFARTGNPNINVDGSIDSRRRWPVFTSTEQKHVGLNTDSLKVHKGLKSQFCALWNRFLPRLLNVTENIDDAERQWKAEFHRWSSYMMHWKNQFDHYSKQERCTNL
Description: Inhibition of electric eel AChE using acetylthiocholine iodide as substrate incubated for 6 mins prior to substrate addition measured after 60 to 180 secs by Ellman method

Cholinesterase [4] = molecular target: Cholinesterase (Equus caballus, UniProt P81908)
Chain of Cholinesterase (Equus caballus, UniProt P81908) (P81908 whole entry): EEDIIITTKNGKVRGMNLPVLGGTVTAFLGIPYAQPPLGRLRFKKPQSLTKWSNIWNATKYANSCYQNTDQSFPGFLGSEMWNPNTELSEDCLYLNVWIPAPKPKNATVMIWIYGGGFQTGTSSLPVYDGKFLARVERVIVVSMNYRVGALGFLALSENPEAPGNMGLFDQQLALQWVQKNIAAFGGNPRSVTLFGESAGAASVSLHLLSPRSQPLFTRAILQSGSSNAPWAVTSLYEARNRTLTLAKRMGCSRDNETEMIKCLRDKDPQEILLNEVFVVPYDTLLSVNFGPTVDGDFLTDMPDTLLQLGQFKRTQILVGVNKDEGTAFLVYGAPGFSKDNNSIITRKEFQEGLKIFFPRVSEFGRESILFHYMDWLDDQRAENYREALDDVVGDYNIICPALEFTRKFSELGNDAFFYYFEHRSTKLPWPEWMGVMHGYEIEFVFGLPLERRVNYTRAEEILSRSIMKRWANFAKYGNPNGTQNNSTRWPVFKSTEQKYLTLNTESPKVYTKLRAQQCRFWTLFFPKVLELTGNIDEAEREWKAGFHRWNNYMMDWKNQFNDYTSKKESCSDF
Description: Inhibition of horse serum BuChE using S-butyrylthiocholine iodide as substrate incubated for 6 mins prior to substrate addition measured after 60 to 180 secs by Ellman method

in vitro = conditions: PAMPA
Description: Permeability of the compound after 16 hrs by PAMPA

[5] = molecular target: T2, Amine oxidase [flavin-containing] A; assay: Inhibition of human MAO-A using p-tyramine as substrate assessed as H2O2 production by amplex red assay
[6] = molecular target: T2, Amine oxidase [flavin-containing] A; assay: Inhibition of human MAO-A using p-tyramine as substrate assessed as H2O2 production at 100 uM by amplex red assay
[7] = molecular target: T1, Amine oxidase [flavin-containing] B; assay: Inhibition of human MAO-B using p-tyramine as substrate assessed as H2O2 production at 200 uM by amplex red assay
[8] = molecular target: T1, Amine oxidase [flavin-containing] B; assay: Inhibition of MAO-B (unknown origin)
Acetylcholinesterase [9] = molecular target: Acetylcholinesterase (Homo sapiens, UniProt P22303); assay: Inhibition of human AChE using acetylthiocholine iodide as substrate incubated for 6 mins prior to substrate addition measured after 60 to 180 secs by Ellman method
Chain of Acetylcholinesterase (Homo sapiens, UniProt P22303) (P22303 whole entry): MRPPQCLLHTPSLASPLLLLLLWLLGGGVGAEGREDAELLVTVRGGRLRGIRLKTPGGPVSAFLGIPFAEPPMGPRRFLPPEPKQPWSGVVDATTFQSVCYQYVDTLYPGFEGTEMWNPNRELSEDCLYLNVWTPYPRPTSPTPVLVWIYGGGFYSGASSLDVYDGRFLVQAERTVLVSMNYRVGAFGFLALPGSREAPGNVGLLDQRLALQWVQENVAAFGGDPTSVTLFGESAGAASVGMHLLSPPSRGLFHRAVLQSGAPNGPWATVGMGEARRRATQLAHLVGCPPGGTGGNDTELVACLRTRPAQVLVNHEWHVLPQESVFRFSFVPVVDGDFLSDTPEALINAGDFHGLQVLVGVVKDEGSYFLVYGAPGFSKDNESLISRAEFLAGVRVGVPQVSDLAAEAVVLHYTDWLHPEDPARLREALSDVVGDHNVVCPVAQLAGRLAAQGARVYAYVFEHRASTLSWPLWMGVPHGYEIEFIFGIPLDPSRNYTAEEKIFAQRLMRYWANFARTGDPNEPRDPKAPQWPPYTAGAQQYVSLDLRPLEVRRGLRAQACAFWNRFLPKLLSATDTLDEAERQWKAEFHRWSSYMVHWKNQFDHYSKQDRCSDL

Cholinesterase [10] = molecular target: Cholinesterase (Homo sapiens, UniProt P06276); assay: Inhibition of human BuChE using S-butyrylthiocholine iodide as substrate incubated for 6 mins prior to substrate addition measured after 60 to 180 secs by Ellman method
Chain of Cholinesterase (Homo sapiens, UniProt P06276) (P06276 whole entry): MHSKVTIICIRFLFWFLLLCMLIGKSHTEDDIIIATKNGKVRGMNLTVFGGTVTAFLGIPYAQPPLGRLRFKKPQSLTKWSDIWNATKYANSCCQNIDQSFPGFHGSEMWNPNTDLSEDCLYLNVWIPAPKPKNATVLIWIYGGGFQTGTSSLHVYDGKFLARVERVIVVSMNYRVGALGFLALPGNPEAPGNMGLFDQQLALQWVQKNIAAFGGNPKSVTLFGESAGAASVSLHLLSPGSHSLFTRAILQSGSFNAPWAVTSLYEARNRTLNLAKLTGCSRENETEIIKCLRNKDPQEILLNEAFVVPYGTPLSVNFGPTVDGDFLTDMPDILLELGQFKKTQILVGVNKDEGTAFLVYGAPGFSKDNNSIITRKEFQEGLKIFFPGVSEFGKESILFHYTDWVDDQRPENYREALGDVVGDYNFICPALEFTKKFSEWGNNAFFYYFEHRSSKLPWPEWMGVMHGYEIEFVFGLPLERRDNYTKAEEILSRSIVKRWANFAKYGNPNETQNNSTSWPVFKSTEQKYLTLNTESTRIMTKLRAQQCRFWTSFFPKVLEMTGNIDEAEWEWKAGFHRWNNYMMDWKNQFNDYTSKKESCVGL

Acetylcholinesterase [11] = molecular target: T3, Acetylcholinesterase; assay: Mixed-type inhibition of electric eel AChE by Lineweaver-Burk plot analysis
[12] = molecular target: T1, Amine oxidase [flavin-containing] B; assay: Reversible inhibition of human MAO-B at 100 times IC50 incubated for 30 mins followed by 100 fold dilution to IC50 by dilution assay relative to control; conditions: 0.5 h
[13] = molecular target: T1, Amine oxidase [flavin-containing] B; assay: Competitive inhibition of human MAO-B using p-tyramine as substrate at 0.5 to 0.125 uM by double reciprocal Lineweaver-Burk plot analysis
[14] = Cytotoxicity against human SH-SY5Y cells assessed as cell viability at 13 uM after 24 hrs by MTT assay; assay type: cell-based; conditions: read-out: Activity
[15] = Cytotoxicity against human SH-SY5Y cells assessed as cell viability at […] after 24 hrs by MTT assay; assay type: cell-based; conditions: read-out: Activity
[16] = Cytotoxicity against human SH-SY5Y cells assessed as cell viability at 3.25 uM after 24 hrs by MTT assay; assay type: cell-based; conditions: read-out: Activity
[17] = Cytotoxicity against human SH-SY5Y cells assessed as cell viability at 1.63 uM after 24 hrs by MTT assay; assay type: cell-based; conditions: read-out: Activity
[18] = Cytotoxicity against human SH-SY5Y cells assessed as cell viability at 0.81 uM after 24 hrs by MTT assay; assay type: cell-based; conditions: read-out: Activity

| Compound | IC50 [1] | Ratio IC50 (Homo sapiens) | IC50 (Acetylcholinesterase [3]) | IC50 (Cholinesterase [4]) | Papp at 16 h (in vitro) | IC50 [5] | also measured |
| --- | --- | --- | --- | --- | --- | --- | --- |
| O=c1ccc2ccc(OCCCN3CCN(CCNc4c5c(nc6ccccc46)CCCC5)CC3)cc2o1 | 2370 nM | > 84.4 | 48.4 nM | 16.1 nM | 3.43 ×10⁻⁶ cm/s | – | inhibition (INH) [2]: Not Active |
| Cc1cc(=O)oc2cc(OCCN3CCN(CCCNc4c5c(nc6ccccc46)CCCC5)CC3)ccc12 | 1770 nM | 37.7 | 39.1 nM | 50.8 nM | 1.9 ×10⁻⁶ cm/s | 66.7 µM | – |
| O=c1ccc2ccc(OCCCCCCN3CCN(CCNc4c5c(nc6ccccc46)CCCC5)CC3)cc2o1 | 5280 nM | 1.14 | 330 nM | 58.6 nM | 6.96 ×10⁻⁶ cm/s | 6.02 µM | – |
| O=c1ccc2ccc(OCCCCN3CCN(CCNc4c5c(nc6ccccc46)CCCC5)CC3)cc2o1 | 780 nM | > 256 | 92.1 nM | 20.9 nM | 5.23 ×10⁻⁶ cm/s | – | inhibition (INH) [2]: Not Active |
| O=c1ccc2ccc(OCCCCCCN3CCN(CCCNc4c5c(nc6ccccc46)CCCC5)CC3)cc2o1 | 9510 nM | 0.64 | 66.2 nM | 38.5 nM | 3.4 ×10⁻⁶ cm/s | 6.05 µM | – |
| O=c1ccc2ccc(OCCN3CCN(CCNc4c5c(nc6ccccc46)CCCC5)CC3)cc2o1 | 4560 nM | > 43.9 | 69.4 nM | 43.4 nM | 2.13 ×10⁻⁶ cm/s | – | inhibition (INH) [2]: Not Active |
| COc1cc(=O)oc2cc(OCCN3CCN(CCCNc4c5c(nc6ccccc46)CCCC5)CC3)ccc12 | 5770 nM | > 17.3 | 44.7 nM | 116 nM | 1.96 ×10⁻⁶ cm/s | – | inhibition (INH) [6]: Not Active |
| CCOc1cc(=O)oc2cc(OCCN3CCN(CCCNc4c5c(nc6ccccc46)CCCC5)CC3)ccc12 | 25700 nM | 3.05 | 51.1 nM | 86.6 nM | 2.74 ×10⁻⁶ cm/s | 78.6 µM | – |
| O=c1ccc2ccc(OCCCN3CCN(CCCNc4c5c(nc6ccccc46)CCCC5)CC3)cc2o1 | 2260 nM | > 88.5 | 24.2 nM | 31.6 nM | 1.45 ×10⁻⁶ cm/s | – | inhibition (INH) [2]: Not Active |
| O=c1cc(-c2ccccc2)c2ccc(OCCN3CCN(CCCNc4c5c(nc6ccccc46)CCCC5)CC3)cc2o1 | – | – | 195 nM | 216 nM | 7.59 ×10⁻⁶ cm/s | – | inhibition (INH) [6]: Not Active; inhibition (INH) [7]: Not Active |
| Cc1c(C)c2ccc(OCc3nnc(C(C)C)s3)cc2oc1=O [ATIBEPRONE] | – | – | – | – | – | – | IC50 [8]: 0.9 nM |
| O=c1ccc2ccc(OCCCCCN3CCN(CCNc4c5c(nc6ccccc46)CCCC5)CC3)cc2o1 | 1590 nM | 5.77 | 139 nM | 32.2 nM | 6.5 ×10⁻⁶ cm/s | 9.18 µM | – |
| O=c1cc(C(F)(F)F)c2ccc(OCCN3CCN(CCCNc4c5c(nc6ccccc46)CCCC5)CC3)cc2o1 | 28800 nM | > 3.48 | 67 nM | 149 nM | 5.58 ×10⁻⁶ cm/s | – | inhibition (INH) [6]: Not Active |
| Nc1cc(=O)oc2cc(OCCN3CCN(CCCNc4c5c(nc6ccccc46)CCCC5)CC3)ccc12 | 38000 nM | > 2.63 | 38.7 nM | 70.7 nM | 0.78 ×10⁻⁶ cm/s | – | inhibition (INH) [6]: Not Active |
| Cc1cc2ccc(OCCN3CCN(CCCNc4c5c(nc6ccccc46)CCCC5)CC3)cc2oc1=O | 540 nM | > 185 | 56.6 nM | 55 nM | 2.95 ×10⁻⁶ cm/s | – | inhibition (INH) [6]: Not Active |
| O=c1ccc2ccc(OCCN3CCN(CCCNc4c5c(nc6ccccc46)CCCC5)CC3)cc2o1 | 2000 nM | > 100 | 17.7 nM | 38 nM | 1.21 ×10⁻⁶ cm/s | – | inhibition (INH) [2]: Not Active |
| Cc1c(C)c2ccc(OCCN3CCN(CCCNc4c5c(nc6ccccc46)CCCC5)CC3)cc2oc1=O | – | 62.8 | 33.6 nM | – | 4.75 ×10⁻⁶ cm/s | 15.1 µM | IC50 (Acetylcholinesterase [9]): 16.1 nM; IC50 (Cholinesterase [10]): 113 nM; Ki (Acetylcholinesterase [11]): 34.4 nM; inhibition (INH) [12]: 79%; inhibition (INH) [13]: Active; viability at 24 h, 13 µM [14]: 77.1%; viability at 24 h, […] [15]: 85.7%; viability at 24 h, 3.25 µM [16]: 91.1%; viability at 24 h, 1.63 µM [17]: 96.6%; viability at 24 h, 0.81 µM [18]: 101% |
| O=c1ccc2ccc(OCCCCCN3CCN(CCCNc4c5c(nc6ccccc46)CCCC5)CC3)cc2o1 | 2290 nM | 4.52 | 48.4 nM | 41.8 nM | 2.37 ×10⁻⁶ cm/s | 10.3 µM | – |
| O=c1ccc2ccc(OCCCCN3CCN(CCCNc4c5c(nc6ccccc46)CCCC5)CC3)cc2o1 | 3450 nM | > 58 | 36 nM | 23 nM | 2.04 ×10⁻⁶ cm/s | – | inhibition (INH) [2]: Not Active |
| Cc1c(Cl)c(=O)oc2cc(OCCN3CCN(CCCNc4c5c(nc6ccccc46)CCCC5)CC3)ccc12 | 700 nM | 75.7 | 31.9 nM | 72.6 nM | 5.37 ×10⁻⁶ cm/s | 53.1 µM | IC50 (Acetylcholinesterase [9]): 24.4 nM; IC50 (Cholinesterase [10]): 124 nM |
| O=c1oc2cc(OCCN3CCN(CCCNc4c5c(nc6ccccc46)CCCC5)CC3)ccc2c2c1CCCC2 | 1520 nM | 14.4 | 144 nM | 159 nM | 3.01 ×10⁻⁶ cm/s | 22 µM | – |
